Like-named read-outs stand apart in the source and are kept apart here.
Key:
HSV-1 = HSV-1 inhibition assay (plaque reduction on Vero cells); assay type: cell-based, herpes simplex virus type 1; conditions: Human alphaherpesvirus 1, dose–response
Experimental: The inhibitory effect of compounds on HSV-1 was evaluated by plaque reduction assay. Vero cells were plated 24 h before the experiment in 24-well plates at a density of 10^5 cells/well. Serial dilutions of compounds in DMEM medium (2% FBS, 1% P/S) were prepared, followed by the addition of aliquots of HSV-1 such that the final titer of the virus is […] (with MOI = 0.0005). Compounds/virus mixtures were incubated at 37 °C for 1 h and added to the cells (250 μL/well). Followed by incubation at 37 °C for 1 h, the viral inoculum was removed. The cells were overlaid with DMEM medium containing 1.2% methylcellulose, 2% FBS, and 1% P/S. After 3 days of incubation at 37 °C, 5% CO2, the cells were fixed and stained with 0.1% crystal violet in 20% ethanol, and plaques were counted. Each group of experiments in the inhibition assay was performed in triplicate. The concentration producing a 50% reduction in plaque formation was determined using the Prism 10 software (GraphPad Software, USA) by comparing compound-treated and untreated cells. Infectivity was calculated as the number of plaques in compound-treated cells/number of plaques in untreated cells × 100%.

HSV-2 [1] = test: HSV-2 inhibition assay (plaque reduction on Vero cells, pretreatment); assay type: cell-based, herpes simplex virus type 2; conditions: for IC50: Human alphaherpesvirus 2, Vero, dose–response, Vero cells
Experimental: The inhibitory effect of compounds on HSV-2 was evaluated by plaque reduction assay. Vero cells were plated 24 h before the experiment in 24-well plates with a seeding density of 10^5 cells/well. Serial dilutions of compounds in DMEM medium (2% FBS, 1% P/S) were prepared, followed by the addition of aliquots of HSV-2 such that the final titer of the virus was 200 pfu/mL (with MOI = 0.0005). Compounds/virus mixtures were incubated at 37 °C for 1 h and added to the cells (250 μL/well). Followed by incubation at 37 °C for 1 h, the viral inoculum was removed. The cells were overlaid with DMEM medium containing 1.2% methylcellulose, 2% FBS, and 1% P/S. After 48 h of incubation at 37 °C, 5% CO2, the cells were fixed and stained with 0.1% crystal violet in 20% ethanol. Finally, the plaques were counted. Each group of experiments in the inhibition assay was performed in triplicate. The concentration producing a 50% reduction in plaque formation was determined using Prism 10 software (GraphPad Software, USA) by comparing compound-treated and untreated cells. Infectivity was calculated as the number of plaques in compound-treated cells/number of plaques in untreated cells × 100%.

H1N1N09 = test: Influenza inhibition assay (ICC on MDCK cells); assay type: cell-based, Influenza A/Netherlands/602/2009 (H1N1); conditions: Influenza A virus, dose–response
H1N1 clinical = test: Influenza inhibition assay (ICC on MDCK cells); assay type: cell-based; conditions: Influenza A virus, dose–response
Flu B = test: Influenza inhibition assay (ICC on MDCK cells); assay type: cell-based; conditions: dose–response
HSV-2 [2] = test: HSV-2 virucidal assay; assay type: cell-based, herpes simplex virus type 2; conditions: for inhibition mechanism against HSV-2 (in words): virucidal tests
HSV-2 [3] = test: Growth of viruses in the presence of compounds (posttreatment), HSV-2; assay type: cell-based, herpes simplex virus type 2; conditions: for IC50: Human alphaherpesvirus 2, Vero, posttreatment condition, Vero cells
H3N2 = test: microbe, parasite or virus in culture; assay type: cell-based; conditions: Influenza A virus, posttreatment condition, MDCK cells
[4] = biological target: glycoprotein D (gD) of HSV; test: Isothermal titration calorimetry with glycoprotein D; assay type: binding; conditions: ITC, 25°C
Experimental: Isothermal titration calorimetry (ITC) experiments were conducted using ITC200 instruments (GE Healthcare, USA) equipped with a 200 μL sample cell and a 40 μL syringe. Thirteen injections were applied. The first data point was excluded. BSA protein and viral protein concentrations in the cell were approximately 50 μM and 1 mg/mL, respectively, and ligand concentrations in the syringe were roughly 2 mM. They were centrifuged at 2000g for 2 min to remove bubbles. The titration was performed at 25 or 37 °C, with data analyzed using MicroCal PEAQ ITC software. Baseline correction was applied, and Nitpic/Sedphat was used for automated integration to ensure precise binding parameter determination.

[5] = CMC assay (conductivity method); assay type: physicochemical; conditions: in water
Experimental: The CMC of antiviral compounds was measured by the conductivity method. Antiviral compounds were diluted into water at different concentrations, and the conductivity (μS/cm) was measured at each concentration with a conductivity meter (Mettler Toledo, Switzerland). The CMC was identified as the point on the conductivity-concentration plot where the slope changed.

[6] = Cytotoxicity assay on Vero cells (MTS); assay type: cell-based; conditions: African green monkey
Experimental: Cytotoxicity assay was performed on the Vero cell line with the MTS assay. The cells were plated for 24 h in DMEM medium containing 10% FBS and 1% penicillin/streptomycin with a seeding density of 2 × 10^4 per well in a 96-well plate. […] Then, the cells were washed with PBS twice, followed by the addition of 20 μL MTS reagents together with 80 μL DMEM medium. They were then incubated at 37 °C for 4 h. The cell viability was checked by absorbance at 490 nm with a plate reader.

[7] = Cytotoxicity assay for MDCK (MTT); assay type: cell-based; conditions: dog, MDCK cells
Experimental: MTT assay was used to evaluate the cytotoxicity on MDCK cells. 10^4 cells per well were seeded in a 96-well plate 1 day before the assay. A dose range of each drug (from 4.11 μM to 1000 μM) was added to the cells in serum-free medium for MDCK cells. The antivirals were incubated on the cells for 24 h at 37 °C. After incubation, the cells were washed, and MTT reagent (Promega) was added to the cells for 4 h at 37 °C according to the manufacturer’s instructions. The cells were then washed, and 50 μL of DMSO was added to free the reagent. Subsequently, the absorbance was read at 579 nm. Percentages of viability were calculated by comparing the absorbance in treated wells and untreated conditions.

[8] = test system: NO production in RAW 264.7 cells; test: NO production in LPS-stimulated macrophages; assay type: cell-based; conditions: Mus musculus, RAW264.7; RAW 264.7 pretreated 2 h with MEIs, then LPS 1 μg/mL for 24 h
Experimental: To evaluate the anti-inflammatory potential of MEIs, we investigated their ability to reduce the level of NO production in macrophages. RAW 264.7 cells were pretreated with the different concentrations of MEIs for 2 h, followed by stimulation with lipopolysaccharide (LPS) (1 μg/mL) for 24 h to induce inflammation. […] However, cotreatment with MEIs led to a reduction in NO levels, confirming their anti-inflammatory effect.

[9] = HSV-2 inhibition, concentration intended to inhibit infection by at least 90 and 99%

Compound | IC50 (HSV-1) | IC50 (HSV-2 [1]) | IC50 (H1N1N09) | IC50 (H1N1 clinical) | IC50 (Flu B) | inhibition mechanism against HSV-2 (in words) (HSV-2 [2]) | IC50 (HSV-2 [3]) | IC50 (H3N2) | Kd [4] | CMC [5] | CC50 at 48 h [6] | CC50 at 24 h [7] | IC99 (HSV-2 [1]; [9]) | IC50 [8] | further results
O=S(=O)(O)CCCCCCCCCCCSCc1cc(CSCCCCCCCCCCCS(=O)(=O)O)cc(CSCCCCCCCCCCCS(=O)(=O)O)c1 [B3C11SO3] | 139 ± 4.6 µM | 88.5 ± 7.6 µM | 35.2 ± 4.7 µM | 4.2 ± 0.36 µM | 324 ± 103 µM | virustatic | 10.3 ± 1.17 µM | 24.8 ± 1.2 µM | 23.2 µM | 497 ± 20.9 µM | > 546 µM | > 415 µM |  |  | IC99 (HSV-2 [1]): 1092 ± 7.6 µM; Virucidal/Virustatic, HSV-2 (HSV-2 [2]; concentration 300 uM): Virustatic; Virucidal/Virustatic, HSV-2 (HSV-2 [2]; concentration 500 uM): Virustatic; Virucidal activity, HSV-2 (HSV-2 [2]; virucidal titration at 90–99% viral inhibition concentration, Vero cells): S; fold reduction in IC50, posttreatment vs pretreatment (HSV-2 [3]; HSV-2): approximately 9 fold
O=S(=O)(O)OCCCCCCCCCCCSCc1cc(CSCCCCCCCCCCCOS(=O)(=O)O)cc(CSCCCCCCCCCCCOS(=O)(=O)O)c1 [B3C11SO4] | 43 ± 1.14 µM | 43 ± 8.3 µM | 0.9 ± 0.05 µM | 0.7 ± 0.04 µM | 0.4 ± 0.04 µM | virucidal | 18 ± 1.13 µM | 8.6 µM | 28.2 µM | 556 ± 35.1 µM | 313 ± 28.7 µM | 12.2 ± 0.94 µM | 103.8 ± 8.3 µM | 152.8 ± 1.27 µM | 
O=S(=O)(O)OCCCCCCCCCCCSCc1cc2c(cc1CSCCCCCCCCCCCOS(=O)(=O)O)OCCOCCOc1cc(CSCCCCCCCCCCCOS(=O)(=O)O)c(CSCCCCCCCCCCCOS(=O)(=O)O)cc1OCCOCCO2 [C4C11SO4] | 22.5 ± 4.2 µM | 9.8 ± 1.5 µM | 80.9 ± 13.7 µM | > 202 µM | 47.9 ± 9.38 µM |  | 4.8 ± 0.7 µM | 18.3 ± 0.75 µM | 141 µM | 1003 ± 24.6 µM | > 657 µM | > 194 µM | 67.47 ± 5.2 µM | 66.1 ± 1.23 µM | 
O=S(=O)(O)CCCCCCCCCCCSCc1cc2c(cc1CSCCCCCCCCCCCS(=O)(=O)O)OCCOCCOc1cc(CSCCCCCCCCCCCS(=O)(=O)O)c(CSCCCCCCCCCCCS(=O)(=O)O)cc1OCCOCCO2 [C4C11SO3] | 118 ± 10.4 µM | 18.5 ± 5.2 µM | 15.8 ± 3.1 µM | 10.4 ± 3.34 µM | 7.7 ± 3.75 µM | virucidal | 12.3 ± 0.76 µM | 52.6 ± 0.5 µM | 83.5 µM | 237 ± 17.1 µM | > 358 µM | 202.3 ± 0.76 µM | 408 ± 1.5 µM | 173.8 ± 1.52 µM | Virucidal/Virustatic, HSV-2 (HSV-2 [2]; concentration 126.3 uM): Virucidal; Virucidal/Virustatic, HSV-2 (HSV-2 [2]; concentration 237.16 uM): Virucidal; Virucidal/Virustatic, HSV-2 (HSV-2 [2]; concentration 304 uM): Virucidal
